How the values were obtained:
[1] = system: adult (18-65 yrs) primary insomnia subjects; test: 3 week placebo controlled parallel group outpatient study of daytime performance (VAS, Sheehan disability scale); assay type: in vivo, human; conditions: doses 5, 10 and 15 mg, about ½ hour before bedtime; 3 weeks; effect more pronounced during week 2 and 3
Description: The daytime performance (used interchangeably with daytime function) in adult (18-65 yrs) primary insomnia subjects (Diagnostic and Statistical Manual of Mental Disorders—Fourth Edition, […]) has been assessed in a 3 week placebo controlled parallel group, outpatient study. The performance was measured with standardized questions using a 100 point Visual Analogue Scale (VAS). The questions asked for subjects to report on their daytime ability to function, tiredness, energy and relaxedness. Subject responses were recorded in a diary in the evening on the day after each treatment night (gaboxadol was administered about ½ hour before bedtime). Moreover, daytime function was recorded once weekly using the Sheehan disability scale (Sheehan et al., 1996, “The measurement of disability,” International Clinical Psychopharmacology 11 (suppl. 3), 89-95).

healthy human subjects = conditions: cited from earlier work
animals = conditions: cited from earlier work
human subjects = test: EEG slow wave sleep and spectral analysis in the clinical studies; assay type: in vivo; conditions: similar effect range as for slow wave sleep
Text: Moreover, gaboxadol induced a dose-dependent increase in duration of slow wave sleep (SWS), that is, stages 3 and 4, which is considered the deepest stage of sleep. The effect ranged between +15 and 46% compared to placebo.

[2] = system: healthy subjects exposed to a phase advance model; test: Phase advance model in healthy subjects (PSG and subjective recording); assay type: in vivo, human
Description: (§1) Effect is confirmed for short-term treatment in studies using acute treatment in healthy subjects exposed to a phase advance model. Assessment of effect on insomnia during intermediate term treatment duration is performed in primary insomnia subjects using treatment duration up to 4 weeks. Long term or chronic treatment is assessed in 12 month safety studies. Subject populations include primary insomnia subjects with age range 18-65 yrs (adults) and 65 and above (elderly).
(§2) Sleep maintenance is measured by either of parameters wakefulness after sleep onset, number of awakenings after sleep onset or total sleep time. […] In these studies, the effect was also confirmed by the subjects own feelings of the sleep initiation. Based both on PSG and on subjective diary recording, gaboxadol doses of 5 to 15 mg are highly preferred to achieve effect in adults and elderly (gaboxadol was administered from ½ hour before bedtime up to immediately before going to bed).

[3] = system: adult subjects with primary insomnia; test: Polysomnograph (PSG) study in adult subjects with primary insomnia; assay type: in vivo, human
Description: as §1, §2

Compound: Oc1noc2c1CCNC2 [gaboxadol, 4,5,6,7-tetrahydroisoxazolo(5,4-c)pyridin-3-ol]
- daytime performance (weekly means of VAS questions and Sheehan disability scale) [1]: significantly improve daytime performance
- deep sleep (healthy human subjects): promote deep sleep
- influence on REM sleep (healthy human subjects): no disrupting influence on REM sleep
- sleep maintenance (healthy human subjects): increase sleep maintenance
- nonREMS amount and nonREMS/REMS episode duration (animals): increasing total amount of nonREMS and lengthening the duration of the nonREMS and REMS episodes
- slow wave activity in EEG spectral analysis (human subjects): increase of slow wave activity
- sleep maintenance as measured by polysomnograph (wakefulness after sleep onset, number of awakenings after sleep onset or total sleep time) ([2]; healthy subjects, phase advance model): improves sleep maintenance
- subjects' own perception of the sleep maintenance effect ([2]; healthy subjects, phase advance model, subjective): decreased wakefulness
- lowest dose at which the sleep maintenance effect was observed ([2]; oral, study not clearly specified in the text): about 5 mg per day
- sleep initiation ([2]; subjects in a phase advance model, confirmed by subjects' own feelings): facilitated sleep initiation
- sleep maintenance as measured by polysomnograph (wakefulness after sleep onset, number of awakenings after sleep onset or total sleep time) ([3]; adult subjects with primary insomnia, oral, from ½ hour before bedtime up to bedtime): improves sleep maintenance
- sleep initiation ([3]; primary insomnia subjects, confirmed by subjects' own feelings): facilitated sleep initiation
